Source: PubChem BioAssay (NCI)
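Method: 48-hour compound exposure of cells in 96-well plates, five concentrations, linear interpolation of endpoints. TGI: concentration producing complete growth inhibition.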

Legend:
Assay in all cases: growth of human tumour cells (NCI), 48 h
786-0 renal = tested on: 786-0 renal
A498 renal = tested on: A498 renal
A549 NSCLC = tested on: A549 NSCLC
ACHN renal = tested on: ACHN renal
BT-549 breast = tested on: BT-549 breast
CAKI-1 renal = tested on: CAKI-1 renal
CCRF-CEM leukemia = tested on: CCRF-CEM leukemia
COLO 205 colon = tested on: COLO 205 colon
DU-145 prostate = tested on: DU-145 prostate
EKVX NSCLC = tested on: EKVX NSCLC
HCC-2998 colon = tested on: HCC-2998 colon
HCT-116 colon = tested on: HCT-116 colon
HCT-15 colon = tested on: HCT-15 colon
HL-60(TB) leukemia = tested on: HL-60(TB) leukemia
HOP-62 NSCLC = tested on: HOP-62 NSCLC
HOP-92 NSCLC = tested on: HOP-92 NSCLC
HS 578T breast = tested on: HS 578T breast
HT29 colon = tested on: HT29 colon
IGROV1 ovarian = tested on: IGROV1 ovarian
K-562 leukemia = tested on: K-562 leukemia
KM12 colon = tested on: KM12 colon
LOX IMVI melanoma = tested on: LOX IMVI melanoma
M14 melanoma = tested on: M14 melanoma
MALME-3M melanoma = tested on: MALME-3M melanoma
MCF7 breast = tested on: MCF7 breast
MDA-MB-231 breast = tested on: MDA-MB-231 breast
MDA-MB-435 = tested on: MDA-MB-435
MDA-N = tested on: MDA-N
MOLT-4 leukemia = tested on: MOLT-4 leukemia
NCI-H226 lung = tested on: NCI-H226 lung
NCI-H23 lung = tested on: NCI-H23 lung
NCI-H460 lung = tested on: NCI-H460 lung
NCI-H522 lung = tested on: NCI-H522 lung
NCI/ADR-RES ovarian = tested on: NCI/ADR-RES ovarian
OVCAR-3 ovarian = tested on: OVCAR-3 ovarian
OVCAR-4 ovarian = tested on: OVCAR-4 ovarian
OVCAR-5 ovarian = tested on: OVCAR-5 ovarian
OVCAR-8 ovarian = tested on: OVCAR-8 ovarian
PC-3 prostate = tested on: PC-3 prostate
RPMI-8226 leukemia = tested on: RPMI-8226 leukemia
RXF 393 renal = tested on: RXF 393 renal
SF-268 CNS = tested on: SF-268 CNS
SF-295 CNS = tested on: SF-295 CNS
SF-539 CNS = tested on: SF-539 CNS
SK-MEL-2 melanoma = tested on: SK-MEL-2 melanoma
SK-MEL-28 melanoma = tested on: SK-MEL-28 melanoma
SK-MEL-5 melanoma = tested on: SK-MEL-5 melanoma
SK-OV-3 ovarian = tested on: SK-OV-3 ovarian
SN12C renal = tested on: SN12C renal
SNB-19 CNS = tested on: SNB-19 CNS
SNB-75 CNS = tested on: SNB-75 CNS
SR leukemia = tested on: SR leukemia
SW-620 colon = tested on: SW-620 colon
T-47D breast = tested on: T-47D breast
TK-10 renal = tested on: TK-10 renal
U251 CNS = tested on: U251 CNS
UACC-257 melanoma = tested on: UACC-257 melanoma
UACC-62 melanoma = tested on: UACC-62 melanoma
UO-31 renal = tested on: UO-31 renal

SMILES: C[C@@]1(CCCCCCCCCCc2ccccc2)C[C@@]2(C)OC(=O)C[C@H]2OO1
- TGI (786-0 renal): 32.9 µM
- TGI (A498 renal): 40.8 µM
- TGI (A549 NSCLC): > 84.6 µM
- TGI (ACHN renal): 4.88 µM
- TGI (BT-549 breast): 0.979 µM
- TGI (CAKI-1 renal): > 84.1 µM
- TGI (CCRF-CEM leukemia): 3.34 µM
- TGI (COLO 205 colon): 3.37 µM
- TGI (DU-145 prostate): > 4.64 µM
- TGI (EKVX NSCLC): 7.2 µM
- TGI (HCC-2998 colon): 3.41 µM
- TGI (HCT-116 colon): 32.5 µM
- TGI (HCT-15 colon): 44.3 µM
- TGI (HL-60(TB) leukemia): 35.8 µM
- TGI (HOP-62 NSCLC): 35.3 µM
- TGI (HOP-92 NSCLC): 2.16 µM
- TGI (HS 578T breast): 7.13 µM
- TGI (HT29 colon): 31.5 µM
- TGI (IGROV1 ovarian): 53.3 µM
- TGI (K-562 leukemia): 13.6 µM
- TGI (KM12 colon): 38.6 µM
- TGI (LOX IMVI melanoma): 34.6 µM
- TGI (M14 melanoma): 2.98 µM
- TGI (MALME-3M melanoma): 3 µM
- TGI (MCF7 breast): 35 µM
- TGI (MDA-MB-231 breast): 36.4 µM
- TGI (MDA-MB-435): 3.4 µM
- TGI (MDA-N): 3.96 µM
- TGI (MOLT-4 leukemia): 2.88 µM
- TGI (NCI-H226 lung): 10.9 µM
- TGI (NCI-H23 lung): 2.9 µM
- TGI (NCI-H460 lung): 5.06 µM
- TGI (NCI-H522 lung): 4.12 µM
- TGI (NCI/ADR-RES ovarian): 55.8 µM
- TGI (OVCAR-3 ovarian): 34.6 µM
- TGI (OVCAR-4 ovarian): 5.03 µM
- TGI (OVCAR-5 ovarian): 3.94 µM
- TGI (OVCAR-8 ovarian): 31.7 µM
- TGI (PC-3 prostate): 4.41 µM
- TGI (RPMI-8226 leukemia): 5.36 µM
- TGI (RXF 393 renal): 54.3 µM
- TGI (SF-268 CNS): 7.95 µM
- TGI (SF-295 CNS): 4.97 µM
- TGI (SF-539 CNS): 2.58 µM
- TGI (SK-MEL-2 melanoma): 45 µM
- TGI (SK-MEL-28 melanoma): 4.2 µM
- TGI (SK-MEL-5 melanoma): 2.26 µM
- TGI (SK-OV-3 ovarian): 73.3 µM
- TGI (SN12C renal): 10.4 µM
- TGI (SNB-19 CNS): 5.24 µM
- TGI (SNB-75 CNS): 6.79 µM
- TGI (SR leukemia): 2.97 µM
- TGI (SW-620 colon): 40.7 µM
- TGI (T-47D breast): 7.32 µM
- TGI (TK-10 renal): 7.28 µM
- TGI (U251 CNS): 33.1 µM
- TGI (UACC-257 melanoma): 4.55 µM
- TGI (UACC-62 melanoma): 4.35 µM
- TGI (UO-31 renal): 49.9 µM

SMILES: ClCCCSSCCCCl
- TGI (786-0 renal): > 100 µM
- TGI (A498 renal): > 100 µM
- TGI (A549 NSCLC): > 100 µM
- TGI (ACHN renal): > 100 µM
- TGI (BT-549 breast): 57.9 µM
- TGI (CAKI-1 renal): > 100 µM
- TGI (CCRF-CEM leukemia): > 43.9 µM
- TGI (COLO 205 colon): > 72.5 µM
- TGI (DU-145 prostate): > 100 µM
- TGI (EKVX NSCLC): > 100 µM
- TGI (HCC-2998 colon): > 88.2 µM
- TGI (HCT-116 colon): > 90.8 µM
- TGI (HCT-15 colon): 57.7 µM
- TGI (HL-60(TB) leukemia): 16 µM
- TGI (HOP-62 NSCLC): > 100 µM
- TGI (HOP-92 NSCLC): > 72.8 µM
- TGI (HS 578T breast): 64.9 µM
- TGI (HT29 colon): > 69.1 µM
- TGI (IGROV1 ovarian): > 100 µM
- TGI (K-562 leukemia): > 100 µM
- TGI (KM12 colon): > 95.1 µM
- TGI (LOX IMVI melanoma): > 81.9 µM
- TGI (M14 melanoma): > 100 µM
- TGI (MALME-3M melanoma): > 100 µM
- TGI (MCF7 breast): 97.6 µM
- TGI (MDA-MB-231 breast): > 80.2 µM
- TGI (MDA-MB-435): > 60.5 µM
- TGI (MDA-N): 49.7 µM
- TGI (MOLT-4 leukemia): 7.42 µM
- TGI (NCI-H226 lung): > 100 µM
- TGI (NCI-H23 lung): > 100 µM
- TGI (NCI-H460 lung): > 100 µM
- TGI (NCI-H522 lung): 65.6 µM
- TGI (NCI/ADR-RES ovarian): > 78 µM
- TGI (OVCAR-3 ovarian): 97.1 µM
- TGI (OVCAR-4 ovarian): > 90.7 µM
- TGI (OVCAR-5 ovarian): > 100 µM
- TGI (OVCAR-8 ovarian): > 75.8 µM
- TGI (PC-3 prostate): 85.5 µM
- TGI (RPMI-8226 leukemia): > 100 µM
- TGI (RXF 393 renal): > 100 µM
- TGI (SF-268 CNS): > 100 µM
- TGI (SF-295 CNS): > 100 µM
- TGI (SF-539 CNS): 48.8 µM
- TGI (SK-MEL-2 melanoma): > 100 µM
- TGI (SK-MEL-28 melanoma): > 100 µM
- TGI (SK-MEL-5 melanoma): > 100 µM
- TGI (SK-OV-3 ovarian): > 100 µM
- TGI (SN12C renal): > 95.1 µM
- TGI (SNB-19 CNS): > 100 µM
- TGI (SNB-75 CNS): > 100 µM
- TGI (SR leukemia): > 25.8 µM
- TGI (SW-620 colon): > 100 µM
- TGI (T-47D breast): > 100 µM
- TGI (TK-10 renal): > 100 µM
- TGI (U251 CNS): > 100 µM
- TGI (UACC-257 melanoma): > 100 µM
- TGI (UACC-62 melanoma): > 100 µM
- TGI (UO-31 renal): > 100 µM
